Counter-ions that a name gives are not always drawn. Like-named read-outs stand apart in the source and are kept apart here.
How the values were obtained:
Type in all cases: biochemical
[1] = biological target: T1, noradrenaline (NA) reuptake sites (Rattus norvegicus, UniProt Q63380); assay: inhibition of [3H]noradrenaline uptake in vitro, frontal cortical synaptosomes; conditions: [3H]noradrenaline 10 nM, means of three independent determinations
T1 construct: Frontal cortical tissue from the brains of male Sprague-Dawley rats; from tissue; host or cells: rat brain frontal cortex (crude synaptosomes in A3, washed membranes in A6)
Description: (§1) Frontal cortical tissue from the brains of male Sprague-Dawley rats (Charles River; weight range 150-250 g) was homogenised in ice-cold 0.32M sucrose (1:10 w/v) using a motor driven teflon pestle (difference in diameter between mortar and pestle 0.5 mm). Nuclei and cell debris were removed by centrifugation at 1,500 g at 4° C. for 10 minutes. The pellet (P1) was discarded and the supernatant centrifuged at 28,000 g at 4° C. for 10 minutes. The crude synaptosomal pellet (P2) was resuspended in Krebs-Physiological buffer (equivalent to 16.7 mg wet weight of tissue/ml).
Crude synaptosomes were incubated in a shaking water bath at 37° C. for 15 minutes. Aliquots (150 μl; equivalent to 2.5 mg wet weight of tissue/tube) were then added to tubes containing 275 μl of Krebs-Physiological buffer and 50 μl of Krebs-Physiological buffer (total uptake) or 50 μl of test compound (at 10 concentrations ranging from […]) or 50 μl of desipramine (10^-5 M; non-specific uptake). Uptake was initiated by the addition of 25 μl of freshly prepared [^3 H]noradrenaline (10 nM), followed by vortexing and was continued for 5 minutes at 37° C. in the shaking water bath. Uptake was terminated by filtration under vacuum through Whatman GF/B filters using a Brandel cell harvester. Filters were then washed with 8 ml ice-cold saline. The scored filter paper discs were placed into vials, scintillation fluid added and radioactivity determined by liquid scintillation counting.
(§2) For each of the dopamine (DA) uptake, 5-hydroxytryptamine (5-HT) uptake and noradrenaline (NA) uptake inhibition tests, the percentage inhibition of specific uptake of the tritiated ligand was calculated for each concentration of test compound. Inhibition curves were then produced. The concentration which gave 50% inhibition of specific uptake (IC50) was obtained from the curve. The inhibition constant (Ki) was then calculated using the formula [formula]
(§3) in which [ligand] is the concentration of tritiated ligand used and Km is the affinity of the uptake site for the ligand. […] Values are means of three independent determinations unless otherwise indicated.

[2] = biological target: T2, 5-hydroxytryptamine (5-HT) reuptake sites (Rattus norvegicus, UniProt P31652); assay: inhibition of [3H]5-HT uptake in vitro, frontal cortical synaptosomes
T2 construct: Frontal cortical tissue from the brains of male Sprague-Dawley rats; from tissue; host or cells: rat brain frontal cortex (crude synaptosomes in A2, washed membranes in A5)
Description: as §1, with “Krebs-Henseleit” for “Krebs-Physiological”, “8.3” for “16.7”
Crude synaptosomes were incubated in a shaking water bath at 37° C. for 15 minutes. Aliquots (150 μl; equivalent to 1.25 mg wet weight of tissue/tube) were then added to tubes containing 275 μl of Krebs-Henseleit buffer and 50 μl of Krebs-Henseleit buffer (total uptake) or 50 μl of test compound (at 10 concentrations ranging from 10^-11 -10^-4 M) or 50 μl of zimeldine (10^-5 M; non-specific uptake). Uptake was initiated by the addition of 25 μl of freshly prepared [^3 H]5-HT (2 nM), followed by vortexing, and was continued for 5 minutes at 37° C. in the shaking water bath. Uptake was terminated by filtration under vacuum through Skatron 11734 filters using a Skatron cell harvester. Filters were then washed with 8 ml ice-cold saline. The scored filter paper discs were punched into vials, scintillation fluid added and radioactivity determined by liquid scintillation counting.
as §2, §3

[3] = biological target: T3, dopamine (DA) reuptake sites (Rattus norvegicus, UniProt P23977); assay: inhibition of [3H]dopamine uptake in vitro, striatal synaptosomes; conditions: [3H]dopamine 2.5 nM, means of three independent determinations
T3 construct: Striatal tissue from the brains of male Charles River rats weighing 150-250 g; from tissue; host or cells: rat brain striatum (crude synaptosomes in A1, washed membranes in A4)
Description: as §1, with “Striatal” for “Frontal cortical”, “Charles River” for “Sprague-Dawley”, “weighing” for “(Charles River; weight range”, “g” for “g)”, “Krebs-Henseleit” for “Krebs-Physiological”, “4.2” for “16.7”
Crude synaptosomes were incubated in a shaking water bath at 37° C. for 15 minutes. Aliquots (150 μl; equivalent to 0.625 mg wet weight of tissue/tube) were then added to tubes containing 275 μl of Krebs-Henseleit buffer and 50 μl of Krebs-Henseleit buffer (total uptake) or 50 μl of test compound (10 concentrations ranging from 10^-11 -10^-4 M or 50 μl of GBR 12909 (10^-5 M; non-specific uptake). Uptake was initiated by the addition of 25 μl of freshly prepared [^3 H]dopamine (2.5 nM), followed by vortexing and was continued for 5 minutes at 37° C. in the shaking water bath.
Uptake was terminated by filtration under vacuum through Skatron 11735 filters using a Skatron cell harvester. Filters were then washed with 8 ml ice-cold saline. The scored filter paper discs were punched into vials, scintillation fluid added and radioactivity determined by liquid scintillation counting.
as §2, §3

T2 sequence (P31652 whole entry): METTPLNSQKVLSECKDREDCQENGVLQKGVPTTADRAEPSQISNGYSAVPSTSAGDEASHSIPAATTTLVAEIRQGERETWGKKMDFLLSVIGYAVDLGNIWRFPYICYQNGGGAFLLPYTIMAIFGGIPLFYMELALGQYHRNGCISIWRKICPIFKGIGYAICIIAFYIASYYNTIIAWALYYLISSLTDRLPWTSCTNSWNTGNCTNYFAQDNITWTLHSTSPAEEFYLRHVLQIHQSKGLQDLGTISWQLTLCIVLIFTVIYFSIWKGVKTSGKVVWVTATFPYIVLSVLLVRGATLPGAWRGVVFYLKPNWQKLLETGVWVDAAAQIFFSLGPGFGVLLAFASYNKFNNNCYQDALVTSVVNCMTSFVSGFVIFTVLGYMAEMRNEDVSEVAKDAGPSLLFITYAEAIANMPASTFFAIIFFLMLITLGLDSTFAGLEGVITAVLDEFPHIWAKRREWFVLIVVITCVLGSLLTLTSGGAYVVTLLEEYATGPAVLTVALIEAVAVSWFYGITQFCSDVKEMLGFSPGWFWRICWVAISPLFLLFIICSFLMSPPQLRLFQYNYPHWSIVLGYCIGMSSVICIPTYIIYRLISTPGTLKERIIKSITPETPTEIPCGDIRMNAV
T1 sequence (Q63380 1-617): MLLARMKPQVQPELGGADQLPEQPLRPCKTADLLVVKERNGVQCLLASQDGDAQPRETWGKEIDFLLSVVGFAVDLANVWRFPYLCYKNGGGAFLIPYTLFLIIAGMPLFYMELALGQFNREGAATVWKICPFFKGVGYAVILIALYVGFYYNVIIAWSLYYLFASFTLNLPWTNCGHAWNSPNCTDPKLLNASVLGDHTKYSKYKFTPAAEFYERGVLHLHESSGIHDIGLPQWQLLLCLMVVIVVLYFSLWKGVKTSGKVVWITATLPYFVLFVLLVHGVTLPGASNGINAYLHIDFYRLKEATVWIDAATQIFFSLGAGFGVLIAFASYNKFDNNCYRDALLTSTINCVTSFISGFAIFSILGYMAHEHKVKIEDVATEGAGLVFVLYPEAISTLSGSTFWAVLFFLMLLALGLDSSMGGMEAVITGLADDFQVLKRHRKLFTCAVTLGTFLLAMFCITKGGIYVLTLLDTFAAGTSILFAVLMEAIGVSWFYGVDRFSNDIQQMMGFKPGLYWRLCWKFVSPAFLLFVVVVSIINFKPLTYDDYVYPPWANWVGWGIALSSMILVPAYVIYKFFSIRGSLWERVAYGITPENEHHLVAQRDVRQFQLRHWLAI
T3 sequence (P23977 whole entry): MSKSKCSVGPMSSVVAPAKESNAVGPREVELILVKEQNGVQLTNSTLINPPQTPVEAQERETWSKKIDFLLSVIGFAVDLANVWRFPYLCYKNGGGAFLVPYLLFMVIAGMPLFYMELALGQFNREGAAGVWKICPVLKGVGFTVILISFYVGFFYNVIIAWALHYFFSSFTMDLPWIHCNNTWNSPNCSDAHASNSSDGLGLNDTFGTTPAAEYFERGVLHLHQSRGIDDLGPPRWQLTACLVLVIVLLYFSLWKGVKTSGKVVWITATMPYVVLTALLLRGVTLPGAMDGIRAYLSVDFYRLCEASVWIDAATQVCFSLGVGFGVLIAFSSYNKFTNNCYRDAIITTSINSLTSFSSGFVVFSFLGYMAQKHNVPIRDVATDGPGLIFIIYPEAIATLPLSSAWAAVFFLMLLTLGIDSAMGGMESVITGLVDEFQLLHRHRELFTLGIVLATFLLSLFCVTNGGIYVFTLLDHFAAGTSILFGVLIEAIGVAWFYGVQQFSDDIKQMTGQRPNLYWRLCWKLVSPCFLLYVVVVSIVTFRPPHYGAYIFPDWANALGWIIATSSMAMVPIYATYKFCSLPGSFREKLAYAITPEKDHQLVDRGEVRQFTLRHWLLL

SMILES | Ki [1] | Ki ([2]; rat frontal cortical synaptosomes, [3H]5-HT 2 nM, means of three independent determinations, read-out: 5-HT uptake (Ki)) | Ki [3] | Ki [2]
Clc1ccc(C2(C3=CSC4=NCCN34)CCC2)cc1Cl [Example 1, 3-[1-(3,4-dichlorophenyl)cyclobuty]-5,6-dihydroimidazo[2,1-b]thiazole hydrobromide] | 34 nM | 120 nM | 9.2 nM | –
Clc1ccc(C2(C3=CSC4=NCCCN34)CCC2)cc1 [Example 2, 3-[1-(4-chlorophenyl)cyclobutyl]-6,7-dihydro-5H-thiazolo[3,2-a]pyrimidine hydrobromide] | 261 nM | – | 104 nM | 782 nM
Clc1ccc(C2(C3=CSC4=NCCN34)CCC2)cc1 [Example 3, 3-[1-(4-chlorophenyl)cyclobutyl]-5,6-dihydroimidazo-[2,1-b]thiazole hydrobromide] | 22 nM | – | 79 nM | 795 nM
Clc1ccc(C2(C3=CSC4=NCCCN34)CCC2)cc1Cl [Example 4, 3-[1-(3,4-dichlorophenyl)cyclobutyl]-6,7-dihydro-5H-thiazolo[3,2-a]pyrimidine hydrobromide] | 15 nM | – | 9.5 nM | 137 nM
C1=C(C2(c3ccc4ccccc4c3)CCC2)N2CCN=C2S1 [Example 5, 3-[1-(2-naphthyl)cyclobutyl]-5,6-dihydroimidazo[2,1-b]thiazole hydrobromide] | 4.4 nM | – | 5.9 nM | 25 nM

— patent publication US6187802A, “Substituted 4-arylmethylene-2-imino-2,3-dihydrothiazoles and derivatives and their pharmaceutical use” (Knoll Aktiengesellschaft, priority 1997, dated 2001)
